In ChEMBL document CHEMBL5356957, “Design, synthesis, biological evaluation and molecular docking of alkoxyaurones as potent pancreatic lipase inhibitors” (Bioorg Med Chem Lett, 2024) one finds KSV, Kq and IC50 data, which are given here for two compounds.

Assay [1] deals with T1, Pancreatic triacylglycerol lipase (Homo sapiens) (UniProt P16233).
T1 sequence (whole entry): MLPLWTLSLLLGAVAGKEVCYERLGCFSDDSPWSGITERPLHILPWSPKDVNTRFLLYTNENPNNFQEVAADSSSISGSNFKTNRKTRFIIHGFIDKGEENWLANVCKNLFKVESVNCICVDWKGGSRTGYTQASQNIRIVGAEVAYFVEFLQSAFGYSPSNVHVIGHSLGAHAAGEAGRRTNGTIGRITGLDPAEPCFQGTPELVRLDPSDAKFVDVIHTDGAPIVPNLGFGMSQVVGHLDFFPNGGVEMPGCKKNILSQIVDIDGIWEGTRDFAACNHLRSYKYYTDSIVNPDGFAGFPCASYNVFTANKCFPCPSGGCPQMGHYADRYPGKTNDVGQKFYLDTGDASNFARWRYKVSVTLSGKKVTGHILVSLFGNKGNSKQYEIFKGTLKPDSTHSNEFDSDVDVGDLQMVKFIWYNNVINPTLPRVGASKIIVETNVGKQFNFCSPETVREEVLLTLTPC
Description: Binding affinity to pancreatic lipase (unknown origin) assessed as Stem-Volmer quenching constant by fluorescence quenching based spectrophotometer analysis

The target of assay [2] is T1, Pancreatic triacylglycerol lipase (Homo sapiens). This is another data set of the same source.
Description: Binding affinity to pancreatic lipase (unknown origin) assessed as quenching constant by fluorescence quenching based spectrophotometer analysis
The target of assay [3] is T2, Pancreatic triacylglycerol lipase (Homo sapiens, UniProt P16233).
T2 sequence (P16233 whole entry): T1 sequence (whole entry)
The assay is described as follows: Inhibition of pancreatic lipase (unknown origin) by spectrophotometeric analysis.

Take `O=c1c(O)c(-c2ccc(O)c(O)c2)oc2cc(O)cc(O)c12`: the KSV in assay [1] is 13.3 10^4L/mol. For the same compound, the Kq in assay [2] was 8.35 10^13L/mol/s.

Turning to `O=C1/C(=C/c2ccccc2)Oc2cc(O)cc(O)c21`, in assay [3], the half-maximal inhibitory concentration (IC50) (in general, the concentration that gives 50% inhibition) is 58.8 µM. Also, in assay [1], the KSV was 7.16 10^4L/mol. Moreover, the Kq in assay [2] was 4.5 10^13L/mol/s.
